# “And” between values parts separate entries of the source, which are not always exact repeats. Identical values can stand only once.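 Protocol summary: plate cells (96-well), add compound at 5 concentrations, incubate 48 h, interpolate endpoints linearly. Here, GI50 denotes the concentration required for 50% inhibition of growth. TGI is the concentration that stops growth completely.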
# Legend:
# Experiment in all cases: growth of human tumour cells (NCI), 48 h
# SF-268 CNS = tested on: SF-268 CNS
# SR leukemia = tested on: SR leukemia
# CCRF-CEM leukemia = tested on: CCRF-CEM leukemia
# OVCAR-4 ovarian = tested on: OVCAR-4 ovarian
# KM12 colon = tested on: KM12 colon
# OVCAR-3 ovarian = tested on: OVCAR-3 ovarian
# SK-MEL-5 melanoma = tested on: SK-MEL-5 melanoma
# HL-60(TB) leukemia = tested on: HL-60(TB) leukemia
# UO-31 renal = tested on: UO-31 renal
# COLO 205 colon = tested on: COLO 205 colon
SMILES,GI50 (SF-268 CNS),TGI (SF-268 CNS),GI50 (SR leukemia),TGI (SR leukemia),GI50 (CCRF-CEM leukemia),TGI (CCRF-CEM leukemia),GI50 (OVCAR-4 ovarian),TGI (OVCAR-4 ovarian),GI50 (KM12 colon),TGI (KM12 colon),GI50 (OVCAR-3 ovarian),TGI (OVCAR-3 ovarian),GI50 (SK-MEL-5 melanoma),TGI (SK-MEL-5 melanoma),GI50 (HL-60(TB) leukemia),TGI (HL-60(TB) leukemia),GI50 (UO-31 renal),TGI (UO-31 renal),GI50 (COLO 205 colon),TGI (COLO 205 colon)
O=C1CCC2=C3C4CCCCC4C(=O)C4CCCC(OC2C1)C34 (centres undefined),0.471 µM,> 21.8 µM,0.307 µM,54.8 µM,1.34 µM,8.08 µM,1.79 µM,> 25.1 µM,1.75 µM,5.46 µM,0.428 µM,2.73 µM,0.729 µM,2.35 µM,0.17 µM,0.998 µM,0.487 µM,3.88 µM,17.7 µM,> 72.7 µM
CC1OC(O[C@H]2/C=C/C=C/C=C/C=C/C=C/C=C/C=C/[C@H](C)[C@@H](O)[C@@H](C)[C@H](C)OC(=O)C[C@H](O)C[C@H](O)CC[C@@H](O)[C@H](O)C[C@H](O)C[C@]3(O)C[C@H](O)[C@@H](C(=O)O)[C@H](C2)O3)C(O)C(N)C1O (some centres undefined),25.6 µM,60.7 µM,,44.8 µM,9.99 µM,48.6 µM,,51.2 µM,,42.6 µM,,27.2 µM,25.8 µM,59 µM,3.29 µM,30.6 µM,,4.27 µM,,45.2 µM
CC([C@H]1CCC2C3CCC4CC5(CC[C@]4(C)C3CC[C@@]21C)c1ccccc1C(=O)N5C)N(C)C (some centres undefined),,> 100 µM,,74.7 µM,,> 100 µM,,> 100 µM,,> 100 µM,,> 100 µM,,42.9 µM,,46.3 µM,,50.2 µM,,> 100 µM
O=C(O[C@H]1CN[C@H](C#Cc2cc3ncnc(Nc4ccc(OCc5cccc(F)c5)c(Cl)c4)c3s2)C1)N1CCOCC1,5.81 µM,> 25 µM,8.01 µM,> 23.7 µM,2.2 µM,> 22 µM,10.3 µM,> 25 µM,5.07 µM,11.2 µM,4.12 µM,11.1 µM,8.55 µM,> 25 µM,6.11 µM,15.1 µM,4.41 µM,> 15.8 µM,5.32 µM,11.1 µM
O=S1c2ccccc2N=C(c2ccc(Cl)cc2)CC1c1cccs1 (centres undefined),,> 100 µM,,43.1 µM,,86.5 µM,,57.2 µM,,33.8 µM,,17.3 µM,,36.9 µM,,45.1 µM,,51.6 µM,,41 µM
COc1cc2c(Nc3ccc(Br)cc3F)ncnc2cc1OCC1CCN(C)CC1,3.24 µM and 6.18 µM,15 µM and > 10 µM,2.55 µM and 2.89 µM,8.29 µM and > 10 µM,4.71 µM and > 10 µM,17.5 µM and > 10 µM,2.92 µM and 5.59 µM,14.8 µM and > 10 µM,8.94 µM and > 10 µM,21.4 µM and > 10 µM,1.65 µM and 2.58 µM,14.2 µM and > 10 µM,4.38 µM and 5.5 µM,8.94 µM and > 10 µM,2.65 µM and 3.14 µM,7.56 µM and > 10 µM,0.573 µM and 0.479 µM,2.5 µM and 5.78 µM,3.6 µM and 4.33 µM,9.88 µM and > 10 µM
O=C1CC2C(=O)C1C(C(=O)O)C2C(=O)O (centres undefined),,> 100 µM,,> 100 µM,,> 100 µM,,> 100 µM,,> 100 µM,,> 100 µM,,> 100 µM,,> 100 µM,,> 100 µM,,> 100 µM
ClC1(c2ccccc2)c2ccc(Br)cc2-c2cc(Br)ccc21,,39.7 µM,,70.6 µM,,> 100 µM,,27.3 µM,,38.5 µM,,30.6 µM,,29.1 µM,,> 100 µM,,29.6 µM,,33.7 µM
CCOC(=O)/C(C#N)=C\C=C1/C=CNC2=NCCN21,,> 100 µM,,> 100 µM,,> 100 µM,,> 100 µM,,> 100 µM,,> 100 µM,,> 100 µM,,> 100 µM,,> 100 µM,,> 100 µM
CCC(c1ccc(OC)cc1)C(CC)c1ccc(O)c(CN2CCCC2)c1 (centres undefined),5.6 µM,21.5 µM,1.49 µM,4.62 µM,3.56 µM,13.5 µM,2.54 µM,15.2 µM,3.72 µM,15.3 µM,6.15 µM,19.5 µM,1.74 µM,3.22 µM,2.14 µM,4.76 µM,3.91 µM,17 µM,1.81 µM,3.71 µM

# From PubChem BioAssay (NCI)
